Experimental findings from patent publication US11806346B2, “HTT modulators for treating Huntington's disease” (CHDI Foundation, Inc., priority 2020, dated 2023) are described below.

Read-outs that look alike come from different tables or passages of the source.

As usually defined, the EC50 is the concentration at which the effect is half-maximal.

This test deals with tHTT (total HTT protein). The test is described as follows: Time-resolved FRET assay, total huntingtin (tHTT) detection in cell lysates. In kind it is cell-based, human. Here is the method:
Single-step detection of mutant huntingtin in animal and human tissues: a bioassay for Huntington's disease. Anal. […] Derivation of Huntington's disease-affected human embryonic stem cell lines, Stem Cells Dev. […] Cells were plated into 384-well collagen coated plates (10,000 cells per well) and left to adhere for 24 hours, test compounds were then added for 48 hours (37° C., 5% CO2), cells were then lysed and the lysate was transferred to a black 384-well assay plate. […] The donor/acceptor ratio between these signals indicated the relative quantities of mHTT and tHTT.

The mark [1] stands for this setting: GEN020 hESCs (mutant 48 Q repeat allele), compounds added for 48 hours, TR-FRET on lysate; read-out: tHTT EC50.

With `Cc1cn2cc(NC(=O)c3cnc(N4CCC(NC(C)(C)C)C4)cn3)cc(F)c2n1` (stereo not drawn) [Example 43], the EC50 under setting [1] was in the range of 100 to 500 nM.
For `Cc1cn2cc(NC(=O)c3cnc(N4CCC(NC(C)C)C4)cn3)cc(F)c2n1` (stereo not drawn) [Example 27], the EC50 under setting [1] is under 100 nM.
Consider `Cc1cn2cc(NC(=O)c3cnc(N4CC(CN5CC[C@@](C)(F)C5)C4)cn3)cc(F)c2n1` [Example 356, N-(8-fluoro-2-methyl-imidazo[1,2-a]pyridin-6-yl)-5-[3-[[(3R)-3-fluoro-3-methyl-pyrrolidin-1-yl]methyl]azetidin-1-yl]pyrazine-2-carboxamide], for which the EC50 under setting [1] was under 100 nM.
The same measure, in the same setting: next, `Cc1cn2cc(NC(=O)c3cnc(N(C)C4CCNC5(CC5)C4)cn3)cc(F)c2n1` (single isomer, unassigned) [Example 318]: 100 to 500 nM; `CN[C@@H]1CCN(c2cnc(C(=O)Nc3cc(F)c4nn(C)cc4c3)cn2)C1` [Example 368, (R)—N-(7-Fluoro-2-methyl-2H-indazol-5-yl)-5-(3-(methylamino)pyrrolidin-1-yl)pyrazine-2-carboxamide]: 1000 to 10000 nM.
Same read-out and setting: next, `Cc1cn2cc(NC(=O)c3cnc(N4CC(C(C)NC5CC5)C4)cn3)nc(C)c2n1` (stereo not drawn) [Example 204]: 100 to 500 nM.
Same read-out and setting: next, `Cc1cn2cc(NC(=O)c3cnc(C4=CCNCC4)cn3)cc(F)c2n1` [Example 358, N-(8-fluoro-2-methyl-imidazo[1,2-a]pyridin-6-yl)-5-(1,2,3,6-tetrahydropyridin-4-yl)pyrazine-2-carboxamide]: 100 to 500 nM; `Cc1cn2cc(NC(=O)c3cnc(N4CC(CN5CC[C@H](F)C5)C4)cn3)cc(Cl)c2n1` [Example 342]: 100 to 500 nM.
Consider `Cc1cn2cc(NC(=O)c3cnc(N4CCC(CN(C)C)C4)cn3)nc(C)c2n1` (stereo not drawn) [Example 63], for which the EC50 under setting [1] lay in the range of 100 to 500 nM.
As for `Cc1cn2cc(NC(=O)c3cnc(N4CC(C5CCCCN5C)C4)cn3)nc(C)c2n1` (single isomer, unassigned) [Example 231], the EC50 under setting [1] lay within 1000 to 10000 nM.
For the molecule `Cc1cn2cc(NC(=O)c3cnc(N4CC5C4CCN5C)cn3)cc(F)c2n1` (single isomer, unassigned) [Example 310], the EC50 under setting [1] was 100 to 500 nM.
With `Cc1cn2cc(NC(=O)c3cnc(N4CCC(NC5CC5)CC4)cn3)cc(F)c2n1` [Example 51], the EC50 under setting [1] was 500 to 1000 nM.
Consider `Cc1nc2cc(F)c(NC(=O)c3cnc(N4CCC(NC5CC5)C4)cn3)cc2o1` (single isomer, unassigned) [Example 114, 5-[3-(cyclopropylamino)pyrrolidin-1-yl]-N-(5-fluoro-2-methyl-1,3-benzoxazol-6-yl)pyrazine-2-carboxamide], for which the EC50 under setting [1] fell in the range of 500 to 1000 nM.
Regarding `Cn1cc2cc(NC(=O)c3cnc(N4CC[C@@H](NC5CC5)C4)cn3)cc(F)c2n1` [Example 282], under setting [1], the EC50 fell in the range of 100 to 500 nM.
On to `CCN[C@H]1CCN(c2cnc(C(=O)Nc3cn4cc(C)nc4c(C)n3)cn2)C1` [Example 62], for which the EC50 under setting [1] lay in the range of 500 to 1000 nM.
With `Cc1cn2cc(NC(=O)c3cnc(N4CC[C@@H](CNCC(F)F)C4)cn3)nc(C)c2n1` [Example 222, (S)-5-(3-(((2,2-difluoroethyl)amino)methyl)pyrrolidin-1-yl)-N-(2,8-dimethylimidazo[1,2-a]pyrazin-6-yl)pyrazine-2-carboxamide], under setting [1], the EC50 was 1000 to 10000 nM.
For the molecule `Cc1cn2cc(NC(=O)c3cnc(N4CC[C@@H](CNCCC(F)(F)F)C4)cn3)cc(F)c2n1` [Example 207, (S)—N-(8-fluoro-2-methylimidazo[1,2-a]pyridin-6-yl)-5-(3-(((3,3,3-trifluoropropyl)amino)methyl)pyrrolidin-1-yl)pyrazine-2-carboxamide], under setting [1], the EC50 is 100 to 500 nM.
In the case of `CCN[C@@H]1CCN(c2cnc(C(=O)Nc3cn4cc(C)nc4cc3OC)cn2)C1` [Example 345, (R)-5-(3-(ethylamino)pyrrolidin-1-yl)-N-(7-methoxy-2-methylimidazo[1,2-a]pyridin-6-yl)pyrazine-2-carboxamide], the EC50 under setting [1] was under 100 nM.
For the molecule `Cc1cn2cc(NC(=O)c3cnc(N(C)C4CCNCC4)cn3)cc(F)c2n1` [Example 221, N-(8-Fluoro-2-methylimidazo[1,2-a]pyridin-6-yl)-5-(methyl(piperidin-4-yl)amino)pyrazine-2-carboxamide], the EC50 under setting [1] was under 100 nM.
For the molecule `CN[C@@H]1CCN(c2cnc(C(=O)Nc3cn4cc(C)nc4c(C)n3)cn2)C1` [Example 67], under setting [1], the EC50 was 100 to 500 nM.
Consider `Cc1cc2cc(NC(=O)c3cnc(N4CC(CNC5CC5)C4)cn3)cc(Cl)n2n1` [Example 344, N-(7-chloro-2-methylpyrazolo[1,5-a]pyridin-5-yl)-5-(3-((cyclopropylamino)methyl)azetidin-1-yl)pyrazine-2-carboxamide], for which the EC50 (read-out: tHTT EC50; GEN020 hESCs (mutant 48 Q repeat allele), compounds added for 48 hours, TR-FRET on lysate) was in the range of 100 to 500 nM.
With `Cc1cn2cc(NC(=O)c3cnc(N4CCC5NCCC54)cn3)cc(F)c2n1` (stereo not drawn) [Example 38], the concentration for a half-maximal effect (EC50) under setting [1] lay in the range of 500 to 1000 nM.
Consider `COCCN(CC1CN(c2cnc(C(=O)Nc3cc(F)c4nc(C)cn4c3)cn2)C1)C1CC1` [Example 299, 5-(3-((cyclopropyl(2-methoxyethyl)amino)methyl)azetidin-1-yl)-N-(8-fluoro-2-methylimidazo[1,2-a]pyridin-6-yl)pyrazine-2-carboxamide], for which the EC50 under setting [1] was in the range of 100 to 500 nM.
Turning to `Cc1cn2cc(NC(=O)c3cnc(N4CCC(NC5CCOCC5)C4)cn3)cc(F)c2n1` (stereo not drawn) [Example 22], the EC50 under setting [1] is 100 to 500 nM.
With `Cc1cc2cc(NC(=O)c3cnc(N4CCC(NC5CC5)C4)cn3)ccn2n1` (single isomer, unassigned) [Example 143, 5-[3-(cyclopropylamino)pyrrolidin-1-yl]-N-(2-methylpyrazolo[1,5-a]pyridin-5-yl)pyrazine-2-carboxamide], the EC50 under setting [1] was in the range of 1000 to 10000 nM.
As for `COc1cc2nn(C)cc2cc1NC(=O)c1cnc(N2CC[C@@H](CNC3CC3)C2)cn1` [Example 351, (S)-5-(3-((cyclopropylamino)methyl)pyrrolidin-1-yl)-N-(6-methoxy-2-methyl-2H-indazol-5-yl)pyrazine-2-carboxamide], the EC50 under setting [1] lay within 100 to 500 nM.
With `Cc1cn2cc(NC(=O)c3cnc(N4CCC(CN(C)C5CC5)C4)cn3)cc(F)c2n1` (single isomer, unassigned) [Example 152], under setting [1], the EC50 is under 100 nM.
On the same count and under the same terms, the same measure for `Cc1cn2cc(NC(=O)c3cnc(NCC4CCCN(C5CC5)C4)cn3)cc(F)c2n1` (stereo not drawn) [Example 365, 5-(((1-Cyclopropylpiperidin-3-yl)methyl)amino)-N-(8-fluoro-2-methylimidazo[1,2-a]pyridin-6-yl)pyrazine-2-carboxamide]: 1000 to 10000 nM.
On to `CNC1CN(c2ncc(C(=O)Nc3cc(F)c4nc(C)cn4c3)cn2)CC1F` (stereo not drawn) [Example 139], for which the EC50 under setting [1] was in the range of 1000 to 10000 nM.
Turning to `Cc1cn2cc(NC(=O)c3cnc(N4C[C@@H](C)N[C@@H](C)C4)cn3)nc(C)c2n1` [Example 69], under setting [1], the EC50 fell in the range of 1000 to 10000 nM.
Turning to `Cc1cn2cc(NC(=O)c3cnc(N4CCC5(CC4)CN(C)C5)cn3)cc(F)c2n1` [Example 8], under setting [1], the EC50 lay in the range of 1000 to 10000 nM.
As for `CNCC1CN(c2cnc(C(=O)Nc3cc(F)c4nc(C)oc4c3)cn2)C1` [Example 349, N-(4-fluoro-2-methylbenzo[d]oxazol-6-yl)-5-(3-((methylamino)methyl)azetidin-1-yl)pyrazine-2-carboxamide], the EC50 under setting [1] fell in the range of 100 to 500 nM.
Still for that read-out and setting: next, `Cc1cn2cc(NC(=O)c3cnc(N4CCC(CNC(C)C)C4)cn3)nc(C)c2n1` (single isomer, unassigned) [Example 154]: 100 to 500 nM.
